In brackets after ≈: the same amount, converted by molar mass. Bounds are passed on as bounds.

Tested on in one data set: not listed separately
In words: Antifouling assay: settlement and mortality of barnacle cyprids after 48 h. In kind it is in vivo. As to conditions: Amphibalanus amphitrite (barnacle, in vivo); cypris larvae, 48 h incubation; read-out: LC50 (toxicity). As to the method:
(§1) Adult barnacles (Amphibalanus amphitrite) procured from oyster farms at Lake Hamana and a pier at Shimizu bay, Shizuoka, were kept in an aquarium at 20 °C and fed on Artemia salina nauplii. Broods were released as I–II stage nauplii upon immersion in seawater after drying overnight. The nauplii thus obtained were cultured in filtered natural seawater (salinity 28) containing penicillin G (20 μg/mL) and streptomycin sulfate (30 μg/mL) and were fed on the diatom Chaetoceros gracilis at concentrations of 40 × 10^4 cells/mL. […] The cyprids were collected and stored at 4 °C until use (0 days old).
(§2) The test compounds were dissolved in ethanol and aliquots of the solution were transferred to wells of a 24-well polystyrene culture plate and air-dried. Four wells were used for each concentration. To each well, filtered seawater (2.0 mL, salinity 28) and six 2-day-old cyprids were added. The plates were kept in the dark at 25 °C for 48 h. […] Three or four trials were done for each concentration. Probit analysis was used to calculate the EC50 values.
On to `[C-]#[N+][C@H]1[C@H](OC(C)C)O[C@H](CO[Si](C)(C)C(C)(C)C)[C@@H](O[Si](C)(C)C(C)(C)C)[C@@H]1O[Si](C)(C)C(C)(C)C` [Compound 6k], for which the LC50 – broadly, the concentration that kills 50% of the test population – at 48 h is > 10 mg/L.

The data set is the same for the next values; noted with them: Amphibalanus amphitrite (barnacle, in vivo, other: immersion in seawater holding the compound); cypris larvae, 48 h incubation; read-out: LC50 (toxicity).
For `[C-]#[N+][C@H]1[C@H](OC(C)=O)O[C@H](COC(C)=O)[C@@H](OC(C)=O)[C@@H]1OC(C)=O` [Compound 6a], the LC50 at 48 h is > 10 mg/L.

As to `[C-]#[N+][C@H]1[C@H](OC(=O)CCCCCCCCCCCCCCC)O[C@H](COC(=O)CCCCCCCCCCCCCCC)[C@@H](OC(=O)CCCCCCCCCCCCCCC)[C@@H]1OC(=O)CCCCCCCCCCCCCCC` [Compound 6b], the LC50 at 48 h is > 10 mg/L.

Regarding `[C-]#[N+][C@H]1[C@H](Oc2ccccc2)O[C@H](COC(C)=O)[C@@H](OC(C)=O)[C@@H]1OC(C)=O` [Compound 6c], the LC50 at 48 h was > 10 mg/L.

As for `[C-]#[N+][C@H]1[C@H](OCc2ccccc2)O[C@H](COC(C)=O)[C@@H](OC(C)=O)[C@@H]1OC(C)=O` [Compound 6d], the LC50 at 48 h was > 10 mg/L.

With `[C-]#[N+][C@H]1[C@H](OCC=C)O[C@H](COC(C)=O)[C@@H](OC(C)=O)[C@@H]1OC(C)=O` [Compound 6e], the LC50 at 48 h is > 10 mg/L.

As to `[C-]#[N+][C@H]1[C@H](OC(C)C)O[C@H](COC(C)=O)[C@@H](OC(C)=O)[C@@H]1OC(C)=O` [Compound 6f], the LC50 at 48 h was > 10 mg/L.

As to `[C-]#[N+][C@H]1[C@H](OCC(F)(F)F)O[C@H](COC(C)=O)[C@@H](OC(C)=O)[C@@H]1OC(C)=O` [Compound 6g], the LC50 at 48 h was > 10 mg/L.

Take `[C-]#[N+][C@H]1[C@H](OC(C)C)O[C@H](COC(=O)CCCCCCC)[C@@H](OC(=O)CCCCCCC)[C@@H]1OC(=O)CCCCCCC` [Compound 6h]: the LC50 at 48 h was > 10 mg/L.

Consider `[C-]#[N+][C@H]1[C@H](OC(C)C)O[C@H](COC(=O)CCCCCCCCCCCCCCC)[C@@H](OC(=O)CCCCCCCCCCCCCCC)[C@@H]1OC(=O)CCCCCCCCCCCCCCC` [Compound 6i], for which the LC50 at 48 h was > 10 mg/L.

As to `[C-]#[N+][C@H]1[C@H](OC(C)C)O[C@H](COC(=O)c2ccccc2)[C@@H](OC(=O)c2ccccc2)[C@@H]1OC(=O)c1ccccc1` [Compound 6j], the LC50 at 48 h is > 10 mg/L.

Another data set concerns cypris larvae of the barnacle Amphibalanus amphitrite. The description is as above. In kind it is in vivo. To be noted: Amphibalanus amphitrite, 48 h, read-out: EC50 (antifouling activity), cypris larvae, 48 h incubation, probit analysis. The procedure:
as §1, §2
Regarding `[C-]#[N+][C@H]1[C@H](OC(C)=O)O[C@H](COC(C)=O)[C@@H](OC(C)=O)[C@@H]1OC(C)=O` [Compound 6a], the EC50 (in general, the concentration giving half of the maximal effect) is > 5 mg/L.

In the case of `[C-]#[N+][C@H]1[C@H](OC(=O)CCCCCCCCCCCCCCC)O[C@H](COC(=O)CCCCCCCCCCCCCCC)[C@@H](OC(=O)CCCCCCCCCCCCCCC)[C@@H]1OC(=O)CCCCCCCCCCCCCCC` [Compound 6b], the EC50 was > 5 mg/L.

Regarding `[C-]#[N+][C@H]1[C@H](Oc2ccccc2)O[C@H](COC(C)=O)[C@@H](OC(C)=O)[C@@H]1OC(C)=O` [Compound 6c], the EC50 was found to be 0.71 mg/L (≈ 1.81 µM).

In the case of `[C-]#[N+][C@H]1[C@H](OCc2ccccc2)O[C@H](COC(C)=O)[C@@H](OC(C)=O)[C@@H]1OC(C)=O` [Compound 6d], the EC50 came out at 0.7 mg/L (≈ 1.73 µM).

On to `[C-]#[N+][C@H]1[C@H](OCC=C)O[C@H](COC(C)=O)[C@@H](OC(C)=O)[C@@H]1OC(C)=O` [Compound 6e], for which the EC50 is 0.37 mg/L (≈ 1.04 µM).

Turning to `[C-]#[N+][C@H]1[C@H](OC(C)C)O[C@H](COC(C)=O)[C@@H](OC(C)=O)[C@@H]1OC(C)=O` [Compound 6f], the EC50 was 0.23 mg/L (≈ 0.644 µM).

For the compound `[C-]#[N+][C@H]1[C@H](OCC(F)(F)F)O[C@H](COC(C)=O)[C@@H](OC(C)=O)[C@@H]1OC(C)=O` [Compound 6g], the EC50 is 0.36 mg/L (≈ 0.906 µM).

With `[C-]#[N+][C@H]1[C@H](OC(C)C)O[C@H](COC(=O)CCCCCCC)[C@@H](OC(=O)CCCCCCC)[C@@H]1OC(=O)CCCCCCC` [Compound 6h], the EC50 was 0.79 mg/L (≈ 1.3 µM).

Consider `[C-]#[N+][C@H]1[C@H](OC(C)C)O[C@H](COC(=O)CCCCCCCCCCCCCCC)[C@@H](OC(=O)CCCCCCCCCCCCCCC)[C@@H]1OC(=O)CCCCCCCCCCCCCCC` [Compound 6i], for which the EC50 turned out to be 0.31 mg/L (≈ 0.328 µM).

Turning to `[C-]#[N+][C@H]1[C@H](OC(C)C)O[C@H](COC(=O)c2ccccc2)[C@@H](OC(=O)c2ccccc2)[C@@H]1OC(=O)c1ccccc1` [Compound 6j], the EC50 was found to be 0.81 mg/L (≈ 1.49 µM).

Regarding `[C-]#[N+][C@H]1[C@H](OC(C)C)O[C@H](CO[Si](C)(C)C(C)(C)C)[C@@H](O[Si](C)(C)C(C)(C)C)[C@@H]1O[Si](C)(C)C(C)(C)C` [Compound 6k], the EC50 is 0.25 mg/L (≈ 0.436 µM).

Staying with this data set, now noted: at a concentration of 10 μg/mL.
Take `[C-]#[N+][C@H]1[C@H](OC(C)=O)O[C@H](COC(C)=O)[C@@H](OC(C)=O)[C@@H]1OC(C)=O` [Compound 6a]: the “toxicity / mortality of cypris larvae” value was “lethal larva was not observed”.

`[C-]#[N+][C@H]1[C@H](OC(=O)CCCCCCCCCCCCCCC)O[C@H](COC(=O)CCCCCCCCCCCCCCC)[C@@H](OC(=O)CCCCCCCCCCCCCCC)[C@@H]1OC(=O)CCCCCCCCCCCCCCC` [Compound 6b]: the “toxicity / mortality of cypris larvae” value is “lethal larva was not observed”.

The test system is the same in another data set.
Test: not given
To be noted: CuSO4 used as a fouling inhibitor; cited from earlier work.
For the compound `O=S(=O)([O-])[O-].[Cu+2]` [CuSO4], the “EC50 (antifouling activity)” value is 0.27 mg/L.

The data set is the same for the next values; noted with them: natural compound obtained from nudibranchs; cited from earlier work.
As for `[C-]#[N+][C@@]1(C)CC[C@H](C(C)C)[C@H]2C=C(C)CC[C@@H]21` [Compound 1, 10-isocyano-4-cadinene], the “EC50 (antifouling activity)” value was 0.14 mg/L (≈ 0.605 µM).

Still in this data set, the particulars now being: natural compound; cited from earlier work.
Consider `[C-]#[N+][C@@]1(C)CC[C@H](C(C)C)[C@H]2C=C(C)CC[C@@H]21` [Compound 1, 10-isocyano-4-cadinene], for which the “LC50 (50% lethal concentration)” value is > 10 mg/L.

The same data set, now with this note: previously reported; cited from earlier work.
Take `[C-]#[N+][C@]1(C)CC[C@@H](/C(C)=C/C=C/C(C)C)CC1` [Compound 4, 3-isocyanotheonellin]: the “EC50 (antifouling activity)” value was 0.19 mg/L (≈ 0.821 µM) and the LC50 was > 10 mg/L.

The same data set, now with this note: synthetic sample of 1 and its synthetic intermediates; cited from earlier work.
As for `[C-]#[N+][C@@]1(C)CC[C@H](C(C)C)[C@H]2C=C(C)CC[C@@H]21` [Compound 1, 10-isocyano-4-cadinene], the “EC50 (antifouling activity)” value is 0.06 mg/L (≈ 0.259 µM) and the LC50 was > 10 mg/L.

For the compound `CC1=C[C@H]2[C@H](CC1)[C@@H](O)CC[C@@H]2C(C)C` [Compound 2], the “EC50 (antifouling activity)” value is 0.31 mg/L (≈ 1.49 µM) and the LC50 was > 10 mg/L.
